Measured values taken from PMC10054418, “Eighteen Novel Bioactive Peptides from Monkfish (Lophius litulon) Swim Bladders: Production, Identification, Antioxidant Activity, and Stability” (Marine Drugs, 2023).
Where two headings read alike, the source gives them in different places. Where a SMILES comes first, the peptide text is derived from it.

Assays:
[1] = cited from earlier work
Source text: DPPH· is a very stable radical and is commonly used as a substrate to assess antioxidant activity. MSP7 and MSP8 have a strong hydrogen donating capacity and can reduce stable DPPH·.

[2] = cited from earlier work; remark: listed apart in the source
Source text: O2−· reacts with metal ions in the Fenton reaction to form HO· that triggers lipid peroxidation and causes oxidative damage to cells. MSP1, MSP2, MSP8, MSP10 and MSP13 have a strong ability to scavenge O2−· .

pepsin and trypsin = assay: Stability in simulated gastrointestinal (GI) digestion, read out as O2−· scavenging activity; details: 2 h of pepsin digestion, peptide 5.0 mg/mL
Method: The reaction was initiated by adding 1 mL of phenazine methosulphate (PMS) solution (120 μM) to the reaction mixture. The absorbance was measured at 560 nm against the corresponding blank after incubation for 5 min at 25 °C. The scavenging capacity of the O2−· was calculated using the following equation: O2−·scavengingactivity(%)=[(Ac−As)/Ac]×100%, where Ac is the absorbance without the sample and As is the absorbance with the sample.

[3] = cited from earlier work; remark: listed apart in the source
Source text: HO· is a kind of strong free radical, which can not only cause lipid peroxidation in vivo but also attack polysaccharides, nucleic acids and other macromolecules, causing serious damage to cells.

[4] = cited from earlier work; remark: listed apart in the source
Source text: ABTS^+· is a single oxygen ion radical with an absorption peak at 734 nm, which can be reduced by antioxidants leading to a decrease in absorbance.

H2O2-damaged HepG2 cells = assay: Cytoprotection on H2O2-damaged HepG2 cells (MTT); format: cell-based, Human
Method: […] Briefly, the HepG2 cells were incubated in a 96-well plate for 24 h. […] After removing peptides, H2O2 was added to the sample, GSH and model groups. After 24 h, the 96-wells were rinsed twice with PBS and used MTT method to determine the cell viability:Cell viability = (ODsample/ODcontrol) × 100%.

[5] = APs from tuna (Katsuwonus pelamis) cardiac arterial bulbs
[6] = APs from tuna cardiac arterial bulbs
[7] = APs from seaweed (Eucheuma cottonii)
[8] = APs from Spanish mackerel (Scomberomorous niphonius) skin
[9] = APs from Antarctic krill (Euphausia superba)
[10] = APs from skin (printed after monkfish muscle)

GEQSN [literature AP from tuna (Katsuwonus pelamis) cardiac arterial bulbs]
EC50 on DPPH· [1, 5]: 2054 µg/mL | EC50 on O2−· [2, 6]: 1857 µg/mL

N=C(N)NCCC[C@H](NC(=O)CN)C(=O)N[C@@H](Cc1c[nH]c2ccccc12)C(=O)O [MSP7, Gly-Arg-Trp] (H-Gly-Arg-Trp-OH)
Declined percentage of O2−· scavenging activity, Treated with Pepsin (pepsin and trypsin): −24.34%

FYKA [literature AP from seaweed (Eucheuma cottonii)]
EC50 on DPPH· [1, 7]: 2560 µg/mL | EC50 on O2−· ([2]; APs from seaweed): 1910 µg/mL

NCCCC[C@H](NC(=O)CNC(=O)CNC(=O)[C@H](CC(=O)O)NC(=O)[C@@H](N)CC(=O)O)C(=O)O [MSP10, Asp-Asp-Gly-Gly-Lys] (H-DDGGK-OH)
Declined percentage of O2−· scavenging activity, Treated with Pepsin (pepsin and trypsin): −21.98%

GPTGE [literature AP from Spanish mackerel (Scomberomorous niphonius) skin]
EC50 on DPPH· [1, 8]: 1420 µg/mL

IDSQ [literature AP from Antarctic krill (Euphausia superba)]
EC50 on HO· [3, 9]: 2570 µg/mL | EC50 on O2−· ([2]; APs from Antarctic krill): 1450 µg/mL

IEEEQ [literature AP from red stingray (Dasyatis akajei) cartilages]
EC50 on ABTS^+· ([4]; APs from red stingray (Dasyatis akajei) cartilages): 180 µg/mL

YSKT [literature AP from seaweed (Eucheuma cottonii)]
EC50 on DPPH· [1, 7]: 1710 µg/mL

PSYV [literature AP from loach (Misgurnus anguillicaudatus) meat]
EC50 on HO· ([3]; AP from loach (Misgurnus anguillicaudatus) meat): 2640 µg/mL

C[C@H](N)C(=O)N[C@@H](CCCNC(=N)N)C(=O)N[C@@H](Cc1c[nH]c2ccccc12)C(=O)O [MSP8, Ala-Arg-Trp] (H-Ala-Arg-Trp-OH)
viability of H2O2-injured HepG2 cells (H2O2-damaged HepG2 cells; 8 h, 200 μmol/L): 81.32 ± 2.45% | Declined percentage of O2−· scavenging activity, Treated with Pepsin (pepsin and trypsin): −24.93%

VGGRP [literature AP from grass carp (Ctenopharyngodon idella) skin]
EC50 on HO· ([3]; AP from grass carp (Ctenopharyngodon idella) skin): 2060 µg/mL

EDIVCW [literature AP from monkfish muscle]
EC50 on DPPH· ([1]; APs from monkfish muscle): 390 µg/mL | EC50 on HO· ([3]; APs from monkfish muscle): 610 µg/mL | EC50 on O2−· ([2]; APs from monkfish muscle): 760 µg/mL

VEKT [literature AP from Antarctic krill (Euphausia superba)]
EC50 on HO· [3, 9]: 1530 µg/mL | EC50 on O2−· ([2]; APs from Antarctic krill): 860 µg/mL

N[C@@H](Cc1ccc(O)cc1)C(=O)N[C@@H](CC(=O)O)C(=O)N[C@@H](Cc1ccc(O)cc1)C(=O)N[C@@H](CC(=O)O)C(=O)O [MSP1, Tyr-Asp-Tyr-Asp] (H-YDYD-OH)
viability of H2O2-injured HepG2 cells (H2O2-damaged HepG2 cells; peptide at 200 μmol/L, 8 h pre-incubation, then H2O2 (300 µM) 24 h, MTT, mean ± SD of triplicate, model group 51.08 ± 1.97%): 82.14 ± 3.28%

YWDAW [literature AP from monkfish muscle]
EC50 on DPPH· ([1]; APs from monkfish muscle): 510 µg/mL | EC50 on HO· ([3]; APs from monkfish muscle): 320 µg/mL | EC50 on O2−· ([2]; APs from monkfish muscle): 480 µg/mL

YGPM [literature AP from Spanish mackerel skin]
EC50 on DPPH· [1, 8]: 720 µg/mL | EC50 on HO· [3, 10]: 880 µg/mL | EC50 on O2−· [2, 10]: 730 µg/mL | EC50 on ABTS^+· ([4]; APs from monkfish skin as printed): 820 µg/mL

PYGAKG [literature AP from Spanish mackerel (Scomberomorous niphonius) skin]
EC50 on DPPH· [1, 8]: 3020 µg/mL

GEGQR [literature AP from tuna (Katsuwonus pelamis) cardiac arterial bulbs]
EC50 on DPPH· [1, 5]: 2257 µg/mL | EC50 on O2−· [2, 6]: 2143 µg/mL | EC50 on ABTS^+· [4, 6]: 1218 µg/mL

PYFK [literature AP from scalloped hammerhead sharks (Sphyrna lewini) muscle]
EC50 on DPPH· ([1]; APs from scalloped hammerhead sharks (Sphyrna lewini) muscle): 4110 µg/mL | EC50 on ABTS^+· ([4]; APs from scalloped hammerhead sharks muscle): 120 µg/mL

NC(=O)CC[C@H](N)C(=O)N[C@@H](CC(=O)O)C(=O)N[C@@H](Cc1ccc(O)cc1)C(=O)N[C@@H](CC(=O)O)C(=O)O [MSP2, Gln-Asp-Tyr-Asp] (H-QDYD-OH)
Declined percentage of O2−· scavenging activity, Treated with Pepsin (pepsin and trypsin): −15.13%

GHHAAA [literature AP from tuna milt (also printed under tuna roes)]
EC50 on ABTS^+· ([4]; APs from tuna milt): 1120 µg/mL

SMDV [literature AP from tuna milt (also printed under tuna roes)]
EC50 on ABTS^+· ([4]; APs from tuna milt): 1160 µg/mL
